Molecules are shown by their SMILES.

As usually defined, the microsomal CLint is a measure of how fast metabolising enzymes remove a compound, apart from limits set by blood flow.

The series in a line: Apparent intrinsic clearance in human liver microsomes. The series is classed as ADME, Microsome. On the technique in general: Liver microsomes are a subcellular fraction often used to study metabolism.
`CC1CCN(C(=O)C2CCOC2)CC1N(C)c1ncnc2[nH]ccc12` (centres undefined): the microsomal CLint came to 11 µL/min/mg.
To `CC1CCN(C(=O)CS(C)(=O)=O)CC1N(C)c1ncnc2[nH]ccc12` (centres undefined) belongs 8 µL/min/mg; to `CC1CCN(C(=O)CC(F)(F)F)CC1N(C)c1ncnc2[nH]ccc12` (centres undefined), 16 µL/min/mg.
As for `C[C@@H]1CCN(C(=O)CC#N)C[C@@H]1N(C)c1ncnc2[nH]ccc12` [TOFACITINIB], the microsomal CLint is 10 µL/min/mg.
